Laboratory results reported in publication PMC9409066, “Functional Characterization of the Venus Flytrap Domain of the Human TAS1R2 Sweet Taste Receptor” (International Journal of Molecular Sciences, 2022).
Changes are numbered by the printed parent chain. Where two headings read alike, the source gives them in different places. Marks after values point to notes of the source that are not given here. Residues, ends and D or L forms follow the SMILES beside them.

Legend:
[1] = system: human panels; conditions: molar basis, cited from earlier work
[2] = target: T1, hTAS1R2-VFT (Homo sapiens, UniProt Q8TE23); assay: Intrinsic tryptophan fluorescence ligand binding, hTAS1R2-VFT
T1 construct: followed by hTAS1R2-VFT (Ala22-Ser493) and another His6-tag at the C-terminus; His6 (thrombin-cleavable) (N); made in house
T1 sequence (Q8TE23 22-493): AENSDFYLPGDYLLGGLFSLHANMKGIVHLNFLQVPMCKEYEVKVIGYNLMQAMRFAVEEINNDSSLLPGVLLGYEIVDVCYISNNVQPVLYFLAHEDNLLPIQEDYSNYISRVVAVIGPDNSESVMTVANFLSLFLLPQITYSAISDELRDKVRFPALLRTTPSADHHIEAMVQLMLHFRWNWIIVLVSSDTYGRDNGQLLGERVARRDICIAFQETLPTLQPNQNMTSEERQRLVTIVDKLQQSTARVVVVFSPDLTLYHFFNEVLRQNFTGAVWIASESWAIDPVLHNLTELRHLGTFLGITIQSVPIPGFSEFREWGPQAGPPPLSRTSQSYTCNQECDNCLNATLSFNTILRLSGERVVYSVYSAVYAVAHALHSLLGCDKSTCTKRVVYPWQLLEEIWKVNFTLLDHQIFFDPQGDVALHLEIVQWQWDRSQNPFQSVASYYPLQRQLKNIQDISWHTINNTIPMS
Text: Therefore, we tested the binding affinity of hTAS1R2-VFT using an intrinsic tryptophan fluorescence assay. This approach allows one to measure protein–ligand interactions by measuring the fluorescence emitted by tryptophan residues upon the titration of sweet ligands. This technique is very sensitive to changes in the local environment of fluorescent amino acid residues within a protein and has been used to measure protein–ligand binding interactions with mouse, human and cat TAS1R-VFTs. For this purpose, we determined the concentration response relationships for the intrinsic tryptophan fluorescence of hTAS1R2-VFT upon the addition of various sweet compounds.
Figure 4 Binding properties of hTAS1R2-VFT assessed by intrinsic tryptophan fluorescence. Titration curves of hTAS1R2-VFT were generated with natural sugars (pink circles) or sweeteners (blue circles). Circles show experimental data, while the solid lines are the computed binding curves; excitation and emission wavelengths were 295 nm and 340 nm, respectively; hTAS1R2-VFT concentration, 0.5 µM. Data points correspond to the means ± SEMs of at least 12 independent replicates of at least three independently refolded protein samples, except for glucose, 6 independent replicates over three independently refolded protein samples.
All measurements were conducted at 20 °C using a Cary Eclipse spectrofluorimeter (Agilent Technologies, Santa Clara, CA, USA) equipped with a Peltier temperature control unit with a 5 nm bandwidth for emission and excitation. Ligand binding experiments with 0.5 µM hTAS1R2-VFTs were performed in buffer composed of 50 mM Tris-HCl pH 8, 150 mM NaCl, 0.5 mM DDM and 1 mM DTT. The intrinsic fluorescence of hTAS1R2-VFTs was measured at an excitation wavelength of 295 nm, and emission spectra were recorded from 320 to 380 nm. Fluorescence emission values were collected at 340 nm wavelength in the presence and absence of sweet ligands. A range of ligand concentrations were freshly prepared in 50 mM Tris-HCl pH 8.0. For titration experiments, successive 0.4 µL aliquots of sweeteners were added to 400 µL of hTAS1R2-VFT solution. Fluorescence measurements were corrected for bleaching, dilution and nonspecific buffer quenching. The dissociation constants (Kd) were calculated from a plot of the ratio between the fluorescence intensity variation and the maximum fluorescence intensity variation (ΔF/ΔFmax) versus the concentration of the total ligand. Assuming that the binding of hTAS1R2-VFT to sweet compounds is described by a one-site binding model, the Kd values of ligand–receptor interactions were determined with a standard nonlinear regression method using SigmaPlot 12.5 software (Systat Software, Inc., San Jose, CA, USA) as previously described. For each ligand, the experiment was repeated on at least twelve cells over at least three different batches of refolded hTAS1R2-VFT.

[3] = system: full-length hTAS1R2/hTAS1R3 receptor E382A; design: method as in PMID 22536376; conditions: cellular assays; cited from earlier work
[4] = target: T2, human TAS1R2/TAS1R3 receptor (Homo sapiens, UniProt Q7RTX0+Q8TE23); conditions: cellular assays, cited from earlier work
T2 sequence (Q8TE23 20-839): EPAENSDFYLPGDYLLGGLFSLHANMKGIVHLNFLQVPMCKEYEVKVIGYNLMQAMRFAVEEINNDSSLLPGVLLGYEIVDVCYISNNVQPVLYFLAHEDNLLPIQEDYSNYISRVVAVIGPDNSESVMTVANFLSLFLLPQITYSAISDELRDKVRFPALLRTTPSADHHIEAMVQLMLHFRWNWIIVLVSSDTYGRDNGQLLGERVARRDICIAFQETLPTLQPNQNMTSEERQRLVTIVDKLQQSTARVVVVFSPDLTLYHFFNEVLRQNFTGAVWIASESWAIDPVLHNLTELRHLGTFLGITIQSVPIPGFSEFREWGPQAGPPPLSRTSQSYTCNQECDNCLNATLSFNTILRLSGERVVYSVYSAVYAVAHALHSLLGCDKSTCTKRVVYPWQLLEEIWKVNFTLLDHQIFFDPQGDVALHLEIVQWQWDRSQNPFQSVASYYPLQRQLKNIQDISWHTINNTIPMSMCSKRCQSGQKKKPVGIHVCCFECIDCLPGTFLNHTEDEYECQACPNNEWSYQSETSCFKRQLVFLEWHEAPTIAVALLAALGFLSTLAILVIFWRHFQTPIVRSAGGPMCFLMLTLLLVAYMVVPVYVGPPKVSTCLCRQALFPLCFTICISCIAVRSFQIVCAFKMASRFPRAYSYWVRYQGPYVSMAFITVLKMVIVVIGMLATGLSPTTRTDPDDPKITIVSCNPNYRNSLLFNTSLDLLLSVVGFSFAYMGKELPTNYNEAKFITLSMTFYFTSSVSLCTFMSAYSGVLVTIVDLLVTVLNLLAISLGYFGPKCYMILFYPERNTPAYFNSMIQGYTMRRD
T2 sequence (Q7RTX0 21-852): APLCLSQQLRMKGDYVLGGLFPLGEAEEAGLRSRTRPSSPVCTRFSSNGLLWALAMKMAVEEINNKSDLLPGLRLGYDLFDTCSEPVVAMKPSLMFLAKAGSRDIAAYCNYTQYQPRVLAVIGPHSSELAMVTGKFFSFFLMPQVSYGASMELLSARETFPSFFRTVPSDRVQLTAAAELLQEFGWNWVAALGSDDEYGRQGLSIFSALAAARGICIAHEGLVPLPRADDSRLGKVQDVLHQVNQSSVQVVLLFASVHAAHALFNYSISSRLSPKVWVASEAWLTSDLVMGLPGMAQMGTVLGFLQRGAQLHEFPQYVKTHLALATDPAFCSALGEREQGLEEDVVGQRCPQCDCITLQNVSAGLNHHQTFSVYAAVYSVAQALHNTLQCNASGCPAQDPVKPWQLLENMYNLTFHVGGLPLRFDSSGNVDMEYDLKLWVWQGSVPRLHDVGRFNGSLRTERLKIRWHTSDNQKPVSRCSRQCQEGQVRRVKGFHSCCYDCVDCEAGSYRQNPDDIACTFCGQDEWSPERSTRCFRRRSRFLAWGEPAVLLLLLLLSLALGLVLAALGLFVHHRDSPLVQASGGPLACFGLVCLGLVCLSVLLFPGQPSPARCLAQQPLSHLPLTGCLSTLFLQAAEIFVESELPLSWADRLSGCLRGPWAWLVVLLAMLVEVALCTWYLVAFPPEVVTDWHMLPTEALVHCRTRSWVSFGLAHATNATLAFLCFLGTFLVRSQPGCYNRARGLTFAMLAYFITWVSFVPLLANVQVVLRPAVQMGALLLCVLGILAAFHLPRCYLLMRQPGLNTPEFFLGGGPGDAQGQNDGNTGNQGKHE

[5] = target: T3, hTAS1R2-VFT-D278A (Homo sapiens, UniProt Q8TE23, D278A); assay: Intrinsic tryptophan fluorescence ligand binding, mutant D278A; conditions: Table 2, read-out: Apparent Kd hTAS1R2-VFT-D278A
T3 construct: followed by hTAS1R2-VFT (Ala22-Ser493) and another His6-tag at the C-terminus; His6 (thrombin-cleavable) (N); made in house
T3 sequence (Q8TE23 22-493 D278A): T1 sequence (Q8TE23 22-493) with D257A
Text: To further confirm that the binding is specific, we performed mutagenesis studies on hTAS1R2-VFT. […] We performed ligand-binding titration assays in the same way as for hTAS1R2-VFT for the two point mutants.
Figure 5 Titration curves of hTAS1R2-VFT-D278A (blue triangles) and hTAS1R2-VFT (black circles) with sucralose (A) and aspartame (B). Circles and triangles show experimental data, while the solid lines are the computed binding curves. Wild-type receptor dose–responses are the same as for Figure 4. Data points correspond to the means ± SEMs of at least 12 independent replicates of at least three independently refolded protein samples.
All measurements were conducted at 20 °C using a Cary Eclipse spectrofluorimeter (Agilent Technologies, Santa Clara, CA, USA) equipped with a Peltier temperature control unit with a 5 nm bandwidth for emission and excitation. Ligand binding experiments with 0.5 µM hTAS1R2-VFTs were performed in buffer composed of 50 mM Tris-HCl pH 8, 150 mM NaCl, 0.5 mM DDM and 1 mM DTT. The intrinsic fluorescence of hTAS1R2-VFTs was measured at an excitation wavelength of 295 nm, and emission spectra were recorded from 320 to 380 nm. Fluorescence emission values were collected at 340 nm wavelength in the presence and absence of sweet ligands. […] Fluorescence measurements were corrected for bleaching, dilution and nonspecific buffer quenching. […]

[6] = system: full-length hTAS1R2/hTAS1R3 receptor D278A; design: method as in PMID 22536376; conditions: cellular-based assay; cited from earlier work
[7] = target: T2, human TAS1R2/TAS1R3 receptor; assay: Cellular-based assay of the sweet taste receptor (EC50); type: cell-based
Text: We determined its affinity constants for natural sugars using dose–response curves.

[8] = target: human TAS1R3-VFT; design: method as in PMID 22450161; conditions: cited from earlier work
[9] = in water equivalent to 5% sucrose, ref Shallenberger, 1993
[10] = Table 1, intrinsic fluorescence, 0.5 µM protein, 20 °C, pH 8, read-out: hTAS1R2-VFT (Kd)
[11] = in water equivalent to 2% sucrose, ref Schiffman and Gatlin, 1993
[12] = in water equivalent to 2% sucrose, ref Bassoli et al., 2002

SMILES | Kd [2, 10] | Sweetness Potency [1, 11] | other results
OC[C@H]1O[C@@H](O[C@H]2[C@H](O)[C@@H](O)C(O)O[C@@H]2CO)[C@H](O)[C@@H](O)[C@H]1O (mixture of isomers) [Lactose] | > 70000 µM | – | Sweetness Potency [1, 9]: 0.3 ^f
CC1=CC(=O)NS(=O)(=O)O1 [Acesulfame-K] | 0.9 ± 0.2 µM | 200 ^e | effect of E382A on the full-length receptor response [3]: abolishes
C[C@@H](NC(=O)[C@@H](N)CC(=O)O)C(=O)NC1C(C)(C)SC1(C)C [Alitame] | 0.15 ± 0.03 µM | 4500 ^e | EC50 ([4]; ref unpublished data obtained from collaborators): 13.8 ± 0.3 µM
COC(=O)[C@H](Cc1ccccc1)NC(=O)[C@@H](N)CC(=O)O [Aspartame] (H-Asp-Phe-OMe) | 17.2 ± 3.1 µM | 250 ^e | EC50 ([4]; ref Masuda et al., 2012): 75 ± 11 µM; Kd [5]: 223 ± 27.7 µM; effect of D278A on the full-length receptor response [6]: decrease the response
O=S(=O)(O)NC1CCCCC1 [Cyclamate] | – | 26 ^e | –
O=C(CO)[C@@H](O)[C@H](O)[C@H](O)CO [Fructose] | – | 0.7 ^e | EC50 [7]: 8000 ± 4000 µM; Kd [2]: 900 ± 200 µM
OC[C@H]1OC(O)[C@H](O)[C@@H](O)[C@@H]1O (some centres unmarked) [Glucose] | 1500 ± 300 µM | – | Sweetness Potency [1, 9]: 0.6 ^f
COC(=O)[C@H](Cc1ccccc1)NC(=O)[C@H](CC(=O)O)NCCC(C)(C)C [Neotame] | 0.09 ± 0.02 µM | – | Sweetness Potency [1, 12]: 11,000 ^g
C=C(C)[C@@H]1CC=C(/C=N/O)CC1 [Perillartine] | – | – | EC50 ([4]; ref Belloir et al., 2021): 2.54 ± 0.48 µM; Sweetness Potency [1, 12]: 1000 ^g
O=C1NS(=O)(=O)c2ccccc21 [Saccharin] | – | 500 ^e | –
OC[C@H]1O[C@H](O[C@]2(CCl)O[C@H](CCl)[C@@H](O)[C@@H]2O)[C@H](O)[C@@H](O)[C@H]1Cl [Sucralose] | 7 ± 1.3 µM | 600 ^e | effect of D278A on the full-length receptor response [6]: abolish the response; effect of E382A on the full-length receptor response [3]: reduces; binding affinity for human TAS1R3-VFT [8]: millimolar range
OC[C@H]1O[C@@](CO)(O[C@H]2O[C@H](CO)[C@@H](O)[C@H](O)[C@H]2O)[C@@H](O)[C@@H]1O [Sucrose] | 4200 ± 900 µM | 1 ^e | EC50 ([7]; cellular assays, unpublished data from our laboratory, read-out: EC50): 11000 ± 3000 µM
